Here are results for 9 molecules from patent US20120088772A1, “NOVEL PHARMACEUTICAL COMPOSITION FOR PREVENTION AND/OR TREATMENT OF ATTENTION DEFICIT/HYPERACTIVITY DISORDER” (ASTELLAS PHARMA INC., priority 2009, published 2012).

Data set [1] deals with spontaneously hypertensive stroke-prone rats (SHRSP). Briefly: Passive avoidance response test with SHRSP (attention deficit/hyperactivity disorder model). Type of data set: in vivo, rat. The settings on record: for Minimum effective dose: 30 min before test; for Effect on cumulative entry latency of SHRSP: sum of entry latency of 2nd to 5th trial, compared with solvent group. The method, then:
Verification of the therapeutic effect on attention deficit/hyperactivity disorder was carried out using spontaneously hypertensive stroke-prone rats (SHRSP). […] The method of Fox et al. (Fox, G. B. et al., Behay. Brain. Res., 131: 151-161, 2002) was partially modified, and the drug action on attention deficit/hyperactivity disorder was verified using a passive avoidance response test with SHRSP. That is, a solvent (vehicle), or dilutions prepared by diluting methylphenidate, compound (1), compound (2), compound (3), compound (4), and compound (5), with a solvent at multiple concentrations were administered to the rats in each group. Methylphenidate was subcutaneously administered, and compounds (1) to (5) were orally administered. As the solvent, physiological saline was used for methylphenidate and a 0.5% aqueous solution of methylcellulose was used for compounds (1) to (5). After 30 minutes of each drug administration, rats were placed in the bright room of the passive avoidance response measurement apparatus, and the time required for the rat to enter the dark room (entry latency) was measured. The longest time for measurement was 180 seconds. When rats entered in the dark room, a very weak electric current was forced to flow from a foot grid in the dark room. This trial was repeated five times, and the sum of the entry latency from 2nd time to 5th time (cumulative entry latency) was adopted as an indicator of the therapeutic effect on attention deficit/hyperactivity disorder. The test of significance difference was carried out between the solvent administered group and the drug administered groups, using Dunnett's test.

For data set [2], the target named is T1, BEC1 potassium channel (Homo sapiens, UniProt Q9ULD8).
T1 sequence (Q9ULD8 1-1083): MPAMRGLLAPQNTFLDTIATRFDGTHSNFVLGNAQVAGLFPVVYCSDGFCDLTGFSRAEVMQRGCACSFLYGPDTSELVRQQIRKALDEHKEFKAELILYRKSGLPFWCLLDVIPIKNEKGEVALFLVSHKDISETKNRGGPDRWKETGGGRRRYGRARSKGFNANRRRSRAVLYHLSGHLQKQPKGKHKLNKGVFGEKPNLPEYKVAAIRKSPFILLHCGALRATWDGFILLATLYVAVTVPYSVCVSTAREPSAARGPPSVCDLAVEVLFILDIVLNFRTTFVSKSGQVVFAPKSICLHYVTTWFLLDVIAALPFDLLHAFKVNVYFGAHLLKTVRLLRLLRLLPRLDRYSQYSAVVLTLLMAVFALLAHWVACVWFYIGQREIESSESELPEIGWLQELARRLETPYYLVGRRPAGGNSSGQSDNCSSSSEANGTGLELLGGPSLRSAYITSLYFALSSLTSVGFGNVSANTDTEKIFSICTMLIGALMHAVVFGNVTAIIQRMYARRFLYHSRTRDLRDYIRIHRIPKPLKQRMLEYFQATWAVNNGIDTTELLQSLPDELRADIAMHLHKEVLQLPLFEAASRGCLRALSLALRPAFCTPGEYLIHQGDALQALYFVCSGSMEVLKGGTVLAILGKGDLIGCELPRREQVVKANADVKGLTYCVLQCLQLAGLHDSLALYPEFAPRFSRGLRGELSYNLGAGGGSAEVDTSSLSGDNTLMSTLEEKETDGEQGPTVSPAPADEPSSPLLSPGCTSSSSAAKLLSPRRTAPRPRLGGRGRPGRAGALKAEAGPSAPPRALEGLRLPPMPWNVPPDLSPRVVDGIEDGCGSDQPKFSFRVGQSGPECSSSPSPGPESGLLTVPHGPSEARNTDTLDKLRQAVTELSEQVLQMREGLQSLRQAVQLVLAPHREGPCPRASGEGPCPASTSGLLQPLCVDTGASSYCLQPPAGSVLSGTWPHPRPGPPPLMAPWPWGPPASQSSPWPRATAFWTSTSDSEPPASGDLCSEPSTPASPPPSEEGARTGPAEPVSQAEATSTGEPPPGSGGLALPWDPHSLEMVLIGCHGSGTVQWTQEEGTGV
Briefly: BEC1 inhibitory activity by 86Rb ion release from BEC1 expressing cells. The settings on record: 86Rb release, BEC1 stably expressing CHO (dhfr-deficient) cells, 100 mM KCl stimulation; read-out: BEC1 Inhibittory Activity IC50. Type of data set: cell-based. On the set-up: expressed in transfected cells. The method, then:
Method for measuring BEC1 inhibitory activity of compound utilizing 86Rb ion release amount as indicator
The channel activity of BEC1 was measured according to the method described in U.S. Pat. No. 6,326,168 utilizing the release of the ions of radioactive isotope 86Rb from BEC1 expressing cells as an indicator. Specifically, when BEC1 expressing cells which had taken in 86Rb ions were stimulated with 100 mM KCl, the radioactivity released from the cells was designated as the channel activity of BEC1. 86Rb ions were incorporated into cells by culturing (3 hours, 37° C.) BEC1 stably expressing cells in the presence of 86RbCl (0.5 μCi/ml), and the unincorporated 86Rb ions were removed by washing the cells three times with HEPES buffered physiological saline (pH 7.4, 2.5 mM KCl). […]
The Cherenkov radioactivities of the extracellular fluid and the cell lysate were respectively measured, and the sum was designated as the total radioactivity. The release amount of 86Rb ions was expressed as the percentage of the radioactivity of the extracellular fluid to the total radiation activity. […] The inhibitory action of the compound was indicated as the IC50 value determined from the inhibition % (that is, (control value—test value)×100/(control value—blank value)). […]

Data set [3] deals with T1, BEC1 potassium channel. The settings on record: background statement; cited from earlier work.
Where [4] appears, read: oral, smallest dose giving significantly longer cumulative entry latency than solvent group (Dunnett's test).

Counter-ions that a name gives are not always drawn.

As a reminder, the melting point is the temperature, or range, at which the solid turns liquid. For orientation: IC50 means the concentration needed to halve the response being measured.

`Fc1ccc(Nc2nc(NCc3ncccn3)nc(Nc3ccc(F)cc3)n2)cc1` (as salt: HCl) [(2), N,N′-bis(4-fluorophenyl)-N″-(pyrimidin-2-ylmethyl)-1,3,5-triazine-2,4,6-triamine] returned a melting point of 183 to 186 °C.
In data set [1] (setting [4]), `Fc1ccc(Nc2nc(NCc3ncccn3)nc(Nc3ccc(F)cc3)n2)cc1` [(2), N,N′-bis(4-fluorophenyl)-N″-(pyrimidin-2-ylmethyl)-1,3,5-triazine-2,4,6-triamine] registered a Minimum effective dose of 0.03 mg/kg p.o. In addition, in data set [1], the “Effect on cumulative entry latency of SHRSP” value (“Effect … of SHRSP” for short) is on record as “prolonged the cumulative entry latency”.
In data set [1] (setting [4]), `COc1ccc(Nc2nc(NCc3ncccn3)nc(Nc3ccc(F)cc3)n2)cc1` [(3), N-(4-fluorophenyl)-N′-(4-methoxyphenyl)-N″-(pyrimidin-2-ylmethyl)-1,3,5-triazine-2,4,6-triamine] had a Minimum effective dose of 0.3 mg/kg p.o. For the same molecule, in data set [1], the “Effect … of SHRSP” value is “prolonged the cumulative entry latency”.
In the case of `Fc1ccc(Nc2nc(NCc3ccncn3)nc(Nc3ccc(F)cc3)n2)cc1` [(4), N,N′-bis(4-fluorophenyl)-N″-(pyrimidin-4-ylmethyl)-1,3,5-triazine-2,4,6-triamine], the Minimum effective dose in data set [1] (setting [4]) came to 0.03 mg/kg p.o. The “Effect … of SHRSP” value in data set [1] is on record as “prolonged the cumulative entry latency”.
With `Cl.Nc1nc(Nc2ccc(F)cc2)nc(N(Cc2ccnc(F)c2)c2ccccc2)n1` [(5), N-(4-fluorophenyl)-N′-[(2-fluoro-4-pyridyl)methyl]-N′-phenyl-1,3,5-triazine-2,4,6-triamine hydrochloride], the IC50 on BEC1 potassium channel [2] amounted to 85 nM. In data set [1] (setting [4]), this molecule registered a Minimum effective dose of 3 mg/kg p.o. For the same molecule, in data set [1], the “Effect … of SHRSP” value is “prolonged the cumulative entry latency”.
With `Fc1ccc(Nc2nc(NCc3ncccn3)nc(Nc3ccccc3)n2)cc1` [Compound (1), N-(4-fluorophenyl)-N′-phenyl-N″-(pyrimidin-2-ylmethyl)-1,3,5-triazine-2,4,6-triamine], the Minimum effective dose in data set [1] (setting [4]) amounted to 0.1 mg/kg p.o. Besides, the “Effect … of SHRSP” value in data set [1] was “prolonged the cumulative entry latency”.
In the case of `COC(=O)C(c1ccccc1)C1CCCCN1` (stereo not shown) [Methylphenidate, methylphenidate, reference compound], the Minimum effective dose in data set [1] (subcutaneous (sc), smallest dose giving significantly longer cumulative entry latency than solvent group) was 0.1(sc) mg/kg. For the same molecule, the “Effect … of SHRSP” value in data set [1] was “prolonged the cumulative entry latency”.
As for `C=C[C@H]1C[N@@]2CC[C@H]1C[C@@H]2[C@@H](O)c1ccnc2ccc(OC)cc12` [quinidine], the “Inhibition of BEC1 potassium channels” value on BEC1 potassium channel [3] was “do not inhibit”.
Regarding `CC[N+](CC)(CC)CC` [tetraethylammonium], the “Inhibition of BEC1 potassium channels” value at BEC1 potassium channel [3] is given as “do not inhibit”.
